Molecules are shown by their SMILES. Bounds are passed on as bounds.

One data set concerns the target T1, JNK1 (Homo sapiens, UniProt P45983).
T1 construct: purchased Eurofins Pharma Discovery (KINOMEscan)
Briefly: KINOMEscan Kd determination, JNK1. Conditions: duplicate, mean, N.B. = no binding at < 30 μM. The procedure:
(§1) Selected compounds were submitted for dissociation constant (Kd) determination using KINOMEscan (Eurofins Pharma Discovery, San Diego, CA, USA), as described previously. […] Primary screening at fixed concentrations of compounds was performed in duplicate.

A further data set addresses T2, JNK2 (Homo sapiens, UniProt P45984).
T2 construct: purchased Eurofins Pharma Discovery (KINOMEscan)
In words: KINOMEscan Kd determination, JNK2. As to conditions: duplicate, mean, N.B. = no binding at < 30 μM. The procedure: as §1

For another data set, the target named is T3, JNK3 (Homo sapiens, UniProt P53779).
T3 construct: purchased Eurofins Pharma Discovery (KINOMEscan)
In words: KINOMEscan Kd determination, JNK3. Conditions: duplicate, mean, N.B. = no binding at < 30 μM. The procedure: as §1

The target of a further data set is JNK1-3. Briefly: KINOMEscan binding, statements for all three JNK isoforms. Conditions: summary of Table 3. The procedure:
as §1

Data set [1] in a line: CellTiter-Glo cytotoxicity in THP-1Blue cells. It is filed as cell-based, human. As to conditions: human, THP-1Blue cells; 24-h incubation, up to 50 μM; read-out: THP-1Blue Cell Cytotoxicity IC50. The procedure: (§2) All cells were cultured at 37 °C in a humidified atmosphere containing 5% CO2. THP1-Blue cells obtained from InvivoGen (San Diego, CA, USA) were cultured in RPMI 1640 medium (Mediatech Inc., Herndon, VA, USA) supplemented with 10% (v/v) fetal bovine serum (FBS), 100 μg/mL streptomycin, 100 U/mL penicillin, 100 μg/mL phleomycin (Zeocin), and 10 μg/mL blasticidin S. Human monocyte-macrophage MonoMac-6 cells (Deutsche Sammlung von Mikroorganismen und Zellkulturen GmbH, Braunschweig, Germany) were grown in RPMI 1640 medium supplemented with 10% (v/v) FBS, 10 μg/mL bovine insulin, 100 μg/mL streptomycin, and 100 U/mL penicillin.
(§3) Cytotoxicity was analyzed with a CellTiter-Glo Luminescent Cell Viability Assay Kit from Promega (Madison, WI, USA), according to the manufacturer’s protocol. Cells were treated with compounds under investigation and incubated for 24 h. After treatment, the cells were equilibrated to room temperature for 30 min, substrate was added, and the samples were analyzed with a Fluoroscan Ascent FL (Thermo Fisher Scientific, Waltham, MA, USA). The IC50 values were calculated by plotting percentage inhibition against the logarithm of inhibitor concentration (at least five points).
For orientation: Cellular ATP, detected with luciferase, serves as a proxy for viable cell number.

Data set [2] is described as follows: CellTiter-Glo cytotoxicity in MonoMac-6 cells. It counts as cell-based, human. As to conditions: human, MonoMac-6 cells; 24-h incubation, up to 50 μM; read-out: MonoMac-6 Cell Cytotoxicity IC50. The procedure:
as §2, §3

In the next data set the test system is NF-κB/AP-1. Briefly: LPS-induced NF-κB/AP-1 alkaline phosphatase reporter assay in THP1-Blue cells. It is filed as cell-based. Conditions: Homo sapiens; 30 min pretreatment, 250 ng/mL LPS for 24 h; read-out: THP-1Blue Cell NF-κB/AP-1 IC50. The procedure:
as §2
Activation of AP-1/NF-κB was measured using an alkaline phosphatase reporter gene assay in THP1-Blue cells. Human monocytic THP-1 Blue cells are stably transfected with a secreted embryonic alkaline phosphatase gene that is under the control of a promoter inducible by NF-κB/AP-1. THP1-Blue cells (2 × 10^5 cells/well) were pretreated with test compound or DMSO for 30 min, followed by addition of 250 ng/mL lipopolysaccharide (LPS) for 24 h, and alkaline phosphatase activity was measured in cell supernatants using QUANTI-Blue mix (InvivoGen) as absorbance at 655 nm and compared with positive control samples (LPS). For selected compounds, the concentrations of inhibitor that caused 50% inhibition of the NF-κB reporter activity (IC50) were calculated.
In general terms: Reporter assays use an easily measured gene product as a stand-in for the process of interest.

For the next data set, the system named is IL-6. In words: LPS-induced IL-6 production in MonoMac-6 cells (ELISA). It is filed as cell-based. As to conditions: Homo sapiens, MONO-MAC-6; 30 min pretreatment, 250 ng/mL LPS for 24 h; read-out: MonoMac-6 Cell IL-6 IC50. The procedure: as §2
A human IL-6 ELISA kit (BD Biosciences, San Jose, CA, USA) was measure IL-6 production. MonoMac-6 cells were plated in 96-well plates at a density of 2 × 10^5 cells/well in culture medium supplemented with 3% (v/v) endotoxin-free FBS. The cells were pretreated with test compound or DMSO for 30 min, followed by addition of 250 ng/mL LPS for 24 h. IC50 values for IL-6 production were calculated by plotting percentage inhibition against the logarithm of inhibitor concentration (at least five points).
On the technique in general: ELISA stands for enzyme-linked immunosorbent assay.

The test system of another data set is THP-1Blue cells. In words: CellTiter-Glo cytotoxicity in THP-1Blue cells. It counts as cell-based, human. As to conditions: 24-h incubation, up to 50 μM. The procedure: as §2, §3

T2 sequence (P45984 whole entry): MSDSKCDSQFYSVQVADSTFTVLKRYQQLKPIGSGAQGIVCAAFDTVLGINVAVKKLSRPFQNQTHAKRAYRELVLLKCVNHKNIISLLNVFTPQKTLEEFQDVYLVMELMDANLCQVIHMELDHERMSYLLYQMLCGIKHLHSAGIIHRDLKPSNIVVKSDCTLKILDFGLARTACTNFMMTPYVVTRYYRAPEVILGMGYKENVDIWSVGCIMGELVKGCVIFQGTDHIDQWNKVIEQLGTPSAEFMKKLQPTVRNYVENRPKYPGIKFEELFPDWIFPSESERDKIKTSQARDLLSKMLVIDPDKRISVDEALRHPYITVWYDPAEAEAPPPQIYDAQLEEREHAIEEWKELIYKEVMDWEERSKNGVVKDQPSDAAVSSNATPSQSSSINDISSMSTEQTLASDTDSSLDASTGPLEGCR
T3 sequence (P53779 whole entry): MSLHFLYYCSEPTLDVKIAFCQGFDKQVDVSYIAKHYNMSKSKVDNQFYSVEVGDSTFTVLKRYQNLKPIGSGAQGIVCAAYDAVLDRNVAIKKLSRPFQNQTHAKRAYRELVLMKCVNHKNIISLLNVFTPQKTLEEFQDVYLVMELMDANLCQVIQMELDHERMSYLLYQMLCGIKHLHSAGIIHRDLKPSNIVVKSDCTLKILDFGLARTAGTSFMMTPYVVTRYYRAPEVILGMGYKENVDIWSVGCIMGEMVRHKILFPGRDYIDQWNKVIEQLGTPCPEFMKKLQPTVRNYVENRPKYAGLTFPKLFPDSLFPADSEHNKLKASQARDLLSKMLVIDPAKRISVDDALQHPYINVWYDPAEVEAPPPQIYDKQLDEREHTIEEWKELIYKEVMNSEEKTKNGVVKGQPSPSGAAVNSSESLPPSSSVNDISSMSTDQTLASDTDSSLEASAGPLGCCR
T1 sequence (P45983 whole entry): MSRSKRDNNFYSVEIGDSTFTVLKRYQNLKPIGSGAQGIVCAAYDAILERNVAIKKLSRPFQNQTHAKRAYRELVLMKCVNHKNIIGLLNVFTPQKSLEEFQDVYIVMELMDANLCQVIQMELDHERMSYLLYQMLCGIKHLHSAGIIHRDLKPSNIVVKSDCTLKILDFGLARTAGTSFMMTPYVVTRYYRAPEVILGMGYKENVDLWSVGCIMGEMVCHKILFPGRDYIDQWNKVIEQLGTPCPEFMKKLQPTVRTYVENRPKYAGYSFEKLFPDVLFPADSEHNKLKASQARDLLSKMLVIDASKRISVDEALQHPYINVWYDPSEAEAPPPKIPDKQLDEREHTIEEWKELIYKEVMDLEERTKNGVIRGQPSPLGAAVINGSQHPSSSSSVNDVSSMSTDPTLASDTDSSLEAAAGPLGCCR

For orientation: Kd means the constant that tells how readily two partners part at equilibrium. As a reminder, the melting point is the temperature of the solid-liquid transition. As to `ON=C1c2ccccc2-c2nc3cc(F)ccc3nc21` [Compound 4a, 7-Fluoro-11H-indeno[1,2-b]quinoxalin-11-one Oxime], the melting point lay in the range of 250 to 251 °C. Besides, the Kd on JNK1 amounted to 0.28 ± 0.07 µM. Further, on JNK2, the Kd was 0.62 ± 0.01 µM. Further, the Kd on JNK3 stood at 0.19 ± 0.01 µM. In addition, the “Binding affinity (Kd) for all three JNK isoforms, in words” value (“Binding affinity (Kd)” below) at JNK1-3 is recorded as “submicromolar”. Further, the IC50 at 24 h in data set [1] was above 50 µM. For the same molecule, in data set [2], the IC50 at 24 h was above 50 µM. Besides, in the data set with NF-κB/AP-1, the IC50 came to 0.3 ± 0.1 µM. In addition, in the data set with IL-6, the IC50 stood at 3 ± 0.6 µM.

With `ON=C1c2ccccc2-c2nc3c(Cl)cccc3nc21` [Compound 4b, 6-Chloro-11H-indeno[1,2-b]quinoxalin-11-one Oxime], the melting point was in the range of 270 to 271 °C. Moreover, the Kd on JNK1 was 0.17 ± 0.04 µM. Further, the Kd at JNK2 turned out to be 0.22 ± 0.06 µM. The Kd on JNK3 amounted to 0.14 ± 0.03 µM. Also, the “Binding affinity (Kd)” value on JNK1-3 is “submicromolar”. In addition, the IC50 at 24 h in data set [1] is above 50 µM. Besides, the IC50 at 24 h in data set [2] is above 50 µM. In the data set with NF-κB/AP-1, the IC50 was determined as 0.9 ± 0.3 µM. Further, in the data set on IL-6, the IC50 stood at 1.2 ± 0.4 µM.

For `CC(C)(C)c1ccc2nc3c(nc2c1)-c1ccccc1/C3=N/O` [Compound 4d, (11Z/E)-7-tert-Butyl-11H-indeno[1,2-b]quinoxalin-11-one Oxime], the melting point was 197 to 198 °C. Also, the Kd at JNK1 is 3.1 ± 0.1 µM. In addition, the Kd at JNK2 came to 1.6 ± 0.6 µM. For the same molecule, the Kd at JNK3 amounted to 3.1 ± 0.2 µM. On JNK1-3, the “Binding affinity (Kd)” value is reported as “relatively low affinity”. Moreover, the IC50 at 24 h in data set [1] is above 50 µM. For the same molecule, the IC50 at 24 h in [2] was above 50 µM. Further, the IC50 in the data set with NF-κB/AP-1 was 0.4 ± 0.1 µM. For the same molecule, in the data set on IL-6, the IC50 was found to be 1 ± 0.2 µM.

In turn, `ON=C1c2ccccc2-c2nc3c(F)cc(F)cc3nc21` [Compound 4e, 6,8-Difluoro-11H-indeno[1,2-b]quinoxalin-11-one Oxime] displayed a melting point of 255 to 256 °C. Also, the dissociation constant (Kd) on JNK1 turned out to be 0.92 ± 0.05 µM. Also, the Kd on JNK2 was determined as 1.6 ± 0.01 µM. Also, the Kd on JNK3 stood at 0.9 ± 0.3 µM. Further, the “Binding affinity (Kd)” value on JNK1-3 is on record as “submicromolar”. Besides, the IC50 at 24 h in [1] was above 50 µM. In addition, the IC50 at 24 h in data set [2] was above 50 µM. Further, the IC50 with NF-κB/AP-1 is 0.4 ± 0.1 µM. In the data set on IL-6, the IC50 is 2.2 ± 0.2 µM.

`O/N=C1/c2ccccc2-c2nc3c(Cl)cc(C(F)(F)F)cc3nc21` [Compound 4i, (11Z/E)-6-Chloro-8-(trifluoromethyl)-11H-indeno[1,2-b]quinoxalin-11-one Oxime] came in with a melting point of 324 to 325 °C. Further, the dissociation constant (Kd) at JNK1 is above 30 µM. For the same molecule, the dissociation constant (Kd) at JNK2 was above 30 µM. Moreover, the Kd at JNK3 is above 30 µM. Moreover, in the data set on JNK1-3, the “Binding affinity (Kd)” value is “inactive”. Besides, in data set [1], the IC50 at 24 h is above 50 µM. Further, the IC50 at 24 h in [2] is above 50 µM. The IC50 in the data set on NF-κB/AP-1 is 2.9 ± 0.9 µM. Besides, the IC50 with IL-6 was found to be 6.2 ± 0.2 µM.

For the molecule `ON=C1c2ccccc2-c2nc3c(C(F)(F)F)cc(C(F)(F)F)cc3nc21` [Compound 4j, 6,8-bis(Trifluoromethyl)-11H-indeno[1,2-b]quinoxalin-11-one oxime], the melting point lay in the range of 253 to 254 °C. Further, the Kd at JNK1 was above 30 µM. Moreover, the Kd at JNK2 is above 30 µM. Besides, the Kd on JNK3 was above 30 µM. Besides, the “Binding affinity (Kd)” value in the data set with JNK1-3 is “inactive”. Besides, the IC50 at 24 h in data set [1] was found to be 36.5 ± 1.9 µM. For the same molecule, the “THP-1Blue Cell Cytotoxicity IC50” value in the data set with THP-1Blue cells is “exhibited cytotoxicity”. In addition, the IC50 at 24 h in [2] was above 50 µM. Further, in the data set with IL-6, the IC50 came out at 4.8 ± 0.5 µM.

On to `ON=C1c2ccccc2-c2nc3cc(F)c(Cl)cc3nc21` [Compound 4k, 8-Chloro-7-fluoro-11H-indeno[1,2-b]quinoxalin-11-one Oxime], for which the melting point is 276 to 277 °C. Moreover, the Kd at JNK1 is above 30 µM. Further, the Kd on JNK2 was above 30 µM. Also, the Kd on JNK3 was 24.5 ± 2.1 µM. For the same molecule, the IC50 at 24 h in [1] was above 50 µM. Besides, in [2], the IC50 at 24 h was above 50 µM. Besides, in the data set on NF-κB/AP-1, the IC50 was 0.6 ± 0.2 µM. In addition, the IC50 with IL-6 was found to be 2.3 ± 0.4 µM.

Values taken from article PMC8464905, “Novel c-Jun N-Terminal Kinase (JNK) Inhibitors with an 11H-Indeno[1,2-b]quinoxalin-11-one Scaffold” (Molecules, 2021).
